Patent US20220280578A1, “METHOD FOR TREATING ALZHEIMER'S DISEASE BY REGULATING INTESTINAL MICROORGANISMS” (SHANGHAI GREEN VALLEY PHARMACEUTICAL CO., LTD., priority 2019, published 2022)
“Also recorded” adds a separate entry of the source.

Experiments:
SLC7A5 = target: T1, SLC7A5 (Mus musculus, UniProt Q9Z127); assay: Uptake of 13C-labelled phenylalanine by CD4+ T cells; format: cell-based; conditions: 0.5 h incubation
T1 construct: endogenous in cells; host or cells: Primary naive CD4+ T cells from splenocytes of C57BL/6 mice, used as Th0 cells and IL-12-induced Th1 cells
Description: Uptake of phenylalanine. Naive CD4^+ T cells were separated from the is splenocytes of 8-month-old C57BL/6 female mice using the Naive CD4^+ T cell Isolation Kit (Stem Cell, Cat No. 19765) and were induced to Th1 differentiation by 20 ng/mL IL-12. After 3 days, a total of 5×10^5 cells/well Th1 cells and Th0 cells in 0.5 mL of RPMI-1640 medium were plated into 48-well plates. ^13C-labelled phenylalanine and 5 mM amino transporter inhibitor BCH were added into indicated wells. After 0.5 h, cells were collected and washed twice with ice-cold D-PBS. 50 μL deionized water was added and cells were lysed through freezing and thawing twice at −80° C. The cell lysate was centrifuged at 12000×g for 10 min and ^13C-labelled phenylalanine in the supernatant was analyzed by Mass spectrometry.

5XFAD mice = assay: JPH 203 in 5XFAD mice, Th1 cells in the brain by flow cytometry; format: in vivo, mouse; conditions: 6-month-old 5XFAD mice, 50 mg/kg intraperitoneal every day for one month, vs vehicle
Description: Flow cytometry sample preparation and analysis. Mice were anesthetized, blood samples were collected into EDTA-containing tubes, and red blood cells were removed using 1×red blood lysis buffer. Before tissue is collection, the brains were perfused with ice-cold PBS to avoid sampling the circulating blood immune cells, and the brains were removed, chopped into pieces and dissected according to the introduction of the Adult Brain Dissociation Kit (Miltenyi, Cat No. 130-107-677) using the gentleMACS dissociator (Miltenyi Biotec). The brain homogenate was filtered through a 70-μm cell strainer and centrifuged at 300×g for 5 min at 4° C. […] All samples were counted and adjusted to a density of 2-3 ×10^6/100 μL, labeled with a Live/Dead kit for 30 min, and then centrifuged at 500×g for 3 min at 4° C. […] Relevant negative control, Fluorescence Minus One (FMO) control and each fluorescence compensation sample were used to adjust fluorescence compensation and identify the populations of interest. Cells were acquired on a BD Aria III cytometer, and data were analyzed using FlowJo software.
Amino acids could be taken by immune cells through specific transporters. […] One month after the administration, the mice were euthanized, and the proportion of pro-inflammatory Th 1 cells in the brains of the mice in the control group and the JPH 203 treatment group was analyzed by flow cytometry. […]

naive CD4+ T cells = assay: In vitro differentiation and proliferation induced by phenylalanine and isoleucine; format: cell-based, mouse; conditions: amino acid added directly to naive CD4+ T cell culture; for Th1 cell proliferation: CellTrace
Description: In Vitro differentiation and proliferation induced by phenylalanine and isoleucine. Naive CD4^+ T cells were separated from the splenocytes of 8-month-old C57BL/6 female mice using the Naive CD4^+ T cell Isolation Kit (Stem Cell, #19765), and the cells were stained with CellTrace (Thermo Fisher, #C34557). A total of 1×10^5 cells/well in 0.2 mL of RPMI-1640 medium were plated in 96-well plates, and the culture medium was supplemented with cytokines or blocking antibodies. Th0: 10 ng/mL mIL-2; Th1:10 ng/mL mIL-2, 5000 ng/mL 11B11. Phenylalanine (final concentration, 2 mmol/L), isoleucine (final concentration, 2 mmol/L) and OM1 (final concentration, 100 μg/mL) were added into the indicated wells, respectively. After incubation at 37° C. in 5% CO2 for 5 days, cells were acquired on a BD Fortessa cytometer, and data were analyzed using FlowJo software.

WT mice (C57) = assay: Intraperitoneal injection of phenylalanine and isoleucine, blood Th1 cells; format: in vivo, mouse; conditions: intraperitoneal injection 50 mg/kg for 4 days

T1 sequence (Q9Z127 whole entry): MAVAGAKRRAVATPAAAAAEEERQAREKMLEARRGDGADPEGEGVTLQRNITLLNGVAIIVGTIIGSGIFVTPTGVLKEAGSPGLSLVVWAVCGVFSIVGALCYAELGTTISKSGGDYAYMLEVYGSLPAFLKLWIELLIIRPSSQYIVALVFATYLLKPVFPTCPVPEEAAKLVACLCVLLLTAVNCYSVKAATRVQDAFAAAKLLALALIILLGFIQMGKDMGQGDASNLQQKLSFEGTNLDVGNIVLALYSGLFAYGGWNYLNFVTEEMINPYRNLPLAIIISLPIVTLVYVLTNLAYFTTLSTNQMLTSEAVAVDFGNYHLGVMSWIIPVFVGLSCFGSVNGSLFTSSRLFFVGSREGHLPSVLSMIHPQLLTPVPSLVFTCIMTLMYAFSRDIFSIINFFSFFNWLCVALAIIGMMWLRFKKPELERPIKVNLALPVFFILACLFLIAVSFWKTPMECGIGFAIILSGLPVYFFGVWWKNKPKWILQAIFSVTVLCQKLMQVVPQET
T1 sequence (P10852 whole entry partner): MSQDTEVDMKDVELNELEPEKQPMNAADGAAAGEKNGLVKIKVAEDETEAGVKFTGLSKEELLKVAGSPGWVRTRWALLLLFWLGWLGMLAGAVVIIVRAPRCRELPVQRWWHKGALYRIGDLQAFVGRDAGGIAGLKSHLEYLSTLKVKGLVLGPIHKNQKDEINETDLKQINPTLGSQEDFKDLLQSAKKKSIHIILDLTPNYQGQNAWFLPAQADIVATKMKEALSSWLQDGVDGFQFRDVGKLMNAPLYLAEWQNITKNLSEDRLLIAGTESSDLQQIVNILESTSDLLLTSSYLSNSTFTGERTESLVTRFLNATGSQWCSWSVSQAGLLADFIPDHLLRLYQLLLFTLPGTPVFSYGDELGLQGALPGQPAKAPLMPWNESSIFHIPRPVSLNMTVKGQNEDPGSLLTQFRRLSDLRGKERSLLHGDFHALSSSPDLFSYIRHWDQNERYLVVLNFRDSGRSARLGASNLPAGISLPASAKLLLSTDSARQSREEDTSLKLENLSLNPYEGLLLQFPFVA

SMILES	uptake of 13C-labelled phenylalanine by CD4+ T cells (SLC7A5)	proportion of pro-inflammatory Th1 cells in the mouse brain (5XFAD mice; 50 mg/kg)	proportion of pro-inflammatory Th1 cells in the mouse brain (5XFAD mice; listed as JPH 203, 50 mg/kg)	Th0 cell differentiation into Th1 cells (naive CD4+ T cells)	Th1 cell proliferation (naive CD4+ T cells)	Th1 cell count in the blood (WT mice (C57))
Nc1cc(COc2c(Cl)cc(C[C@H](N)C(=O)O)cc2Cl)c2oc(-c3ccccc3)nc2c1 [JPH203]	blocked	effectively inhibits; also recorded: significantly downregulated	significantly reduces	–	–	–
CC[C@H](C)[C@H](N)C(=O)O [isoleucine]	–	–	–	increased	increased	increased significantly
N[C@@H](Cc1ccccc1)C(=O)O [phenylalanine]	–	–	–	increased	increased	increased significantly
